Where two headings read alike, the source gives them in different places.
What was measured:
[1] = CHI Log D procedure; type: physicochemical; details: for chromatographic logD: pH 7.4, CHI Log D
[2] = biological target: T1, full-length beta-Catenin (Uniprot ID P35222) (Homo sapiens, UniProt P35222); test: Fluorescence polarization IC50 (beta-catenin / 5FAM-TCF4 10-53 competition); type: binding
T1 construct: 10 nM full-length beta-Catenin (Uniprot ID P35222)
T1 sequence (P35222 1-781): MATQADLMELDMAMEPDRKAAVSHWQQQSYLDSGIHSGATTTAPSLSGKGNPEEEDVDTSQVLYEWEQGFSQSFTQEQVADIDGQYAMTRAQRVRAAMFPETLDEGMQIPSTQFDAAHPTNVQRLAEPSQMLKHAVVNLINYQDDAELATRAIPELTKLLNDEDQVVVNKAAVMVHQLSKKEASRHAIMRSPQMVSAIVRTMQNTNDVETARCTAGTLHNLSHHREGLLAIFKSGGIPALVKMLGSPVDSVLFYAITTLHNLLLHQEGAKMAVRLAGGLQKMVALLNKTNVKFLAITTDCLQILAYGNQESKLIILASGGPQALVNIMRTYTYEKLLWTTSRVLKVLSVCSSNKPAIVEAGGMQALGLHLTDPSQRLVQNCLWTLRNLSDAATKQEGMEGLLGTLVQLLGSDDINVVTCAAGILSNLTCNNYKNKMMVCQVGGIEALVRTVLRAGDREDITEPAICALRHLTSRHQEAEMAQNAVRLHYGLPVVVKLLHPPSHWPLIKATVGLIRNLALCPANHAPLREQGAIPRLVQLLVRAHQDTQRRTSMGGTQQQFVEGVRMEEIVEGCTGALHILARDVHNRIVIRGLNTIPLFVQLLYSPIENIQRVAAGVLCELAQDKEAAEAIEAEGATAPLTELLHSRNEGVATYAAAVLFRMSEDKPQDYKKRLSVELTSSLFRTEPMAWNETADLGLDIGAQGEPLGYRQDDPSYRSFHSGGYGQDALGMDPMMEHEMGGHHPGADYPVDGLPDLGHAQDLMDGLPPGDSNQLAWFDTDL

[3] = Table E2-1, read-out: beta-Catenin FP IC50
[4] = fluorescence polarization, beta-catenin, read-out: FP EC50
[5] = fluorescence polarization, read-out: beta-Catenin FP IC50

Row | Compound | chromatographic logD [1] | CHI Log D ([1]; pH 7.4) | IC50 [2, 5] | IC50 ([2]; read-out: FP EC50) | further results
1 | CC(=O)N1CCC[C@]12CC=CCCCC1(CCCC=CCCCCCC[C@@](C)(C(=O)N[C@@H](Cc3ccccc3)C(=O)N[C@@H](Cc3c[nH]c4c(F)cccc34)C(=O)N[C@@H](CCC(N)=O)C(N)=O)NC(=O)[C@H](C(C)C)NC(=O)[C@H](Cc3ccccc3)NC(=O)[C@H](C)NC(=O)[C@H](C)NC(=O)[C@H](CCC(=O)O)NC(=O)[C@H](CC(=O)O)NC1=O)NC(=O)[C@H](C)NC(=O)[C@H](CC(=O)O)NC2=O (stereo partly drawn) [I-166, Ac-PL3-Asp-Ala-B5-Asp-Glu-Ala-Ala-Phe-Val-S8-Phe-7FW-Gln-NH2] | 2.06 |  |  |  | IC50 [2, 3]: 2160 nM
2 | CC(=O)N1CCC[C@]12CC=CCCCC1(CCCC=CCOC(=O)N(C)CCC[C@@](C)(C(=O)N[C@@H](Cc3ccccc3)C(=O)N[C@@H](Cc3c[nH]c4ccccc34)C(=O)N[C@@H](CCC(N)=O)C(N)=O)NC(=O)[C@H](C(C)C)NC(=O)[C@H](Cc3ccccc3)NC(=O)[C@H](C)NC(=O)[C@H](C)NC(=O)[C@H](CC(=O)O)NC(=O)[C@H](CC(=O)O)NC1=O)NC(=O)[C@H](C)NC(=O)[C@H](CC(=O)O)NC2=O (stereo partly drawn) [I-54, Ac-PL3-Asp-Ala-B5-Asp-Asp-Ala-Ala-Phe-Val-SeN-Phe-Trp-Gln-NH2] |  | 1.469 |  |  | IC50 [2, 3]: 3190 nM; IC50 [2, 4]: 3190 nM
3 | CC(=O)N1CCC[C@]12CC=CCCCC1(CCCC=CCCCCCC[C@@](C)(C(=O)N[C@@H](Cc3ccccc3)C(=O)N[C@@H](Cc3ccc4ccccc4c3)C(=O)N[C@@H](CCC(N)=O)C(N)=O)NC(=O)[C@H](C(C)C)NC(=O)[C@H](Cc3ccc(F)c(F)c3)NC(=O)[C@H](C)NC(=O)[C@H](C)NC(=O)[C@H](CCC(=O)O)NC(=O)[C@H](CC(=O)O)NC1=O)NC(=O)[C@H](C)NC(=O)[C@H](CC(=O)O)NC2=O (stereo partly drawn) [I-184, Ac-PL3-Asp-Ala-B5-Asp-Glu-Ala-Ala-34FF-Val-S8-Phe-2NapA-Gln-NH2] | 2.27 |  |  |  | IC50 [2, 3]: 3110 nM
4 | CC(=O)N1CCC[C@]12CC=CCCCC1(CCCC=CCCCCCC[C@@](C)(C(=O)N[C@@H](Cc3ccccc3)C(=O)N[C@@H](Cc3csc4ccccc34)C(=O)N[C@@H](CCC(N)=O)C(N)=O)NC(=O)[C@H](CC(N)=O)NC(=O)[C@H](Cc3ccc(C)cc3)NC(=O)[C@H](C)NC(=O)[C@H](C)NC(=O)[C@H](CCC(=O)O)NC(=O)[C@H](CC(=O)O)NC1=O)NC(=O)[C@H](C)NC(=O)[C@H](CC(=O)O)NC2=O (stereo partly drawn) [I-459, Ac-PL3-Asp-Ala-B5-Asp-Glu-Ala-Ala-4MeF-Asn-S8-Phe-BztA-Gln-NH2] | 2.06 |  | 183 nM |  | 
5 | CC(=O)N1CCC[C@]12CC=CCCCC1(CCCC=CCCCCCC[C@@](C)(C(=O)N[C@@H](Cc3cccc(F)c3)C(=O)N[C@@H](Cc3csc4ccccc34)C(=O)N[C@@H](CCC(N)=O)C(N)=O)NC(=O)[C@H](CCC(N)=O)NC(=O)[C@H](Cc3ccccc3)NC(=O)[C@H](C)NC(=O)[C@H](C)NC(=O)[C@H](Cc3c[nH]cn3)NC(=O)[C@H](CC(=O)O)NC1=O)NC(=O)[C@H](C)NC(=O)[C@H](CC(=O)O)NC2=O (stereo partly drawn) [I-399, Ac-PL3-Asp-Ala-B5-Asp-His-Ala-Ala-Phe-Gln-S8-3FF-BztA-Gln-NH2] | 2.52 |  | 2500 nM |  | 
6 | CC[C@H](C)[C@H](NC(=O)[C@H](CC(=O)O)NC(=O)C(C)(C)NC(C)=O)C(=O)N[C@]1(C)CCN(C)C(=O)OCC=CCCCCC[C@@](C)(C(=O)N[C@@H](Cc2ccccc2)C(=O)N[C@@H](Cc2c[nH]c3ccccc23)C(N)=O)NC(=O)[C@H](CCC(N)=O)NC(=O)[C@H](Cc2ccccc2)NC(=O)[C@H](C)NC(=O)[C@H](C)NC(=O)[C@H](CCC(=O)O)NC(=O)[C@H](CC(=O)O)NC1=O [I-147, Ac-Aib-Asp-Ile-RdN-Asp-Glu-Ala-Ala-Phe-Gln-S7-Phe-Trp-NH2] | 1.4 |  |  |  | IC50 [2, 3]: 1640 nM

Further lines, with some results ahead:

Row | chromatographic logD [1] | CHI Log D ([1]; pH 7.4) | IC50 [2, 5] | IC50 ([2]; read-out: FP EC50) | Compound | further results
7 |  | 2.147 |  |  | CC(=O)N1CCC[C@]12CC=CCCCC1(CCCC=CCCCOC(=O)N3CC[C@@](C(=O)N[C@@H](Cc4ccccc4Cl)C(=O)N[C@@H](Cc4csc5ccccc45)C(=O)N[C@@H](CO)C(N)=O)(C3)NC(=O)[C@H](CC(C)C)NC(=O)[C@H](Cc3ccccc3)NC(=O)[C@H](C)NC(=O)[C@H](C)NC(=O)[C@H](CCC(=O)O)NC(=O)[C@H](CC(=O)O)NC1=O)NC(=O)[C@H](CC(C)(C)C)NC(=O)[C@H](CC(=O)O)NC2=O (stereo partly drawn) [I-1067, Ac-PL3-Asp-Npg-B5-Asp-Glu-Ala-Ala-Phe-Leu-PyrS2-2C1F-BztA-Ser-NH2] | IC50 [2, 4]: 517 nM; IC50 ([2]; read-out: beta-Catenin FP IC50): 517 nM
8 |  | 2.308 | 56 nM | 56 nM | CC(=O)N1CCC[C@]12CC=CCCCC1(CCCC=CCCCCCC[C@@](C)(C(=O)N[C@@H](Cc3ccccc3)C(=O)N[C@@H](Cc3csc4ccccc34)C(=O)N[C@@H](CCC(N)=O)C(N)=O)NC(=O)[C@H](CCC(N)=O)NC(=O)[C@H](Cc3ccccc3)NC(=O)[C@H](C)NC(=O)[C@H](C)NC(=O)[C@H](CC(=O)O)NC(=O)[C@H](CC(=O)O)NC1=O)NC(=O)[C@H](CC(C)C)NC(=O)[C@H](CC(=O)O)NC2=O (stereo partly drawn) [I-558, Ac-PL3-Asp-Leu-B5-Asp-Asp-Ala-Ala-Phe-Gln-S8-Phe-BztA-Gln-NH2] | 
9 |  | 2.219 | 56 nM | 56 nM | CC[C@@H]1NC(=O)[C@H](CC(=O)O)NC(=O)[C@]2(CC=CCCCC3(CCCC=CCCCCCC[C@@](C)(C(=O)N[C@@H](Cc4ccccc4)C(=O)N[C@@H](Cc4csc5ccccc45)C(=O)N[C@@H](Cc4c[nH]cn4)C(N)=O)NC(=O)[C@H](CCC(N)=O)NC(=O)[C@H](Cc4ccccc4)NC(=O)[C@H](C)NC(=O)[C@H](C)NC(=O)[C@H](CCC(=O)O)NC(=O)[C@H](CC(=O)O)NC3=O)NC1=O)CCCN2C(C)=O (stereo partly drawn) [I-570, Ac-PL3-Asp-Abu-B5-Asp-Glu-Ala-Ala-Phe-Gln-S8-Phe-BztA-His-NH2] | 
10 |  | 2.587 | 54 nM | 54 nM | CC[C@H](C)[C@@H]1NC(=O)[C@H](CC(=O)O)NC(=O)[C@]2(CC=CCCCC3(CCCC=CCCCCCC[C@@](C)(C(=O)N[C@@H](Cc4ccccc4)C(=O)N[C@@H](Cc4csc5ccccc45)C(=O)N[C@@H](CCC(N)=O)C(N)=O)NC(=O)[C@H](CCC(N)=O)NC(=O)[C@H](Cc4ccccc4)NC(=O)[C@H](C)NC(=O)[C@H](C)NC(=O)[C@H](CN(CC(=O)O)CC(F)(F)F)NC(=O)[C@H](CC(=O)O)NC3=O)NC1=O)CCCN2C(C)=O (stereo partly drawn) [I-610, Ac-PL3-Asp-Ile-B5-Asp-TfeGA-Ala-Ala-Phe-Gln-S8-Phe-BztA-Gln-NH2] | logD ([1]; pH 7.4): 2.6; IC50 ([2]; read-out: bCat FP IC50): 54 nM
11 |  | 2.019 | 196 nM | 196 nM | COc1ccccc1C[C@H](NC(=O)[C@]1(C)CCCCCCC=CCCCC2(CCCC=CC[C@]3(CCCN3C(C)=O)C(=O)N[C@@H](CC(=O)O)C(=O)N[C@@H](C)C(=O)N2)C(=O)N[C@@H](CC(=O)O)C(=O)N[C@@H](CCC(=O)O)C(=O)N[C@@H](C)C(=O)N[C@@H](C)C(=O)N[C@@H](Cc2ccccc2)C(=O)N[C@@H](CCC(N)=O)C(=O)N1)C(=O)N[C@@H](Cc1csc2ccccc12)C(=O)N[C@@H](CCC(N)=O)C(N)=O (stereo partly drawn) [I-525, Ac-PL3-Asp-Ala-B5-Asp-Glu-Ala-Ala-Phe-Gln-S8-2OMeF-BztA-Gln-NH2] | 
12 |  | 1.785 | 92 nM | 92 nM | CC(=O)N1CCC[C@]12CC=CCCCC1(CCCC=CCCCCOC(=O)N3CC[C@@](C(=O)N[C@@H](Cc4ccccc4)C(=O)N[C@@H](Cc4csc5ccccc45)C(=O)N[C@@H](CCC(N)=O)C(N)=O)(C3)NC(=O)[C@H](CC(N)=O)NC(=O)[C@H](Cc3ccccc3)NC(=O)[C@H](C)NC(=O)[C@H](C)NC(=O)[C@H](CCC(=O)O)NC(=O)[C@H](CC(=O)O)NC1=O)NC(=O)[C@H](C)NC(=O)[C@H](CC(=O)O)NC2=O (stereo partly drawn) [I-463, Ac-PL3-Asp-Ala-B5-Asp-Glu-Ala-Ala-Phe-Asn-PyrS3-Phe-BztA-Gln-NH2] | 
13 |  | 2.044 |  |  | CC(=O)N1CCC[C@]12CC=CCCCC1(CCCC=CCCCOC(=O)N3CC[C@@](C(=O)N[C@@H](Cc4ccccc4Cl)C(=O)N[C@@H](Cc4csc5ccccc45)C(=O)N[C@@H](CO)C(N)=O)(C3)NC(=O)[C@H](CC(C)C)NC(=O)[C@H](Cc3ccccc3)NC(=O)[C@H](C)NC(=O)[C@H](C)NC(=O)[C@H](CC(=O)O)NC(=O)[C@H](CC(=O)O)NC1=O)NC(=O)[C@H](CC(C)(C)C)NC(=O)[C@H](CC(=O)O)NC2=O (stereo partly drawn) [I-1065, Ac-PL3-Asp-Npg-B5-Asp-Asp-Ala-Ala-Phe-Leu-PyrS2-2C1F-BztA-Ser-NH2] | IC50 [2, 4]: 520 nM; IC50 ([2]; read-out: beta-Catenin FP IC50): 520 nM
14 |  | 1.831 | 57 nM | 57 nM | CC(=O)N1CCC[C@]12CC=CCCCC1(CCCC=CCCCCOC(=O)N3CC[C@@](C(=O)N[C@@H](Cc4ccccc4)C(=O)N[C@@H](Cc4csc5ccccc45)C(=O)N[C@@H](CCC(N)=O)C(N)=O)(C3)NC(=O)[C@H](CC(N)=O)NC(=O)[C@H](Cc3ccccc3)NC(=O)[C@H](C)NC(=O)[C@H](C)NC(=O)[C@H](CCC(=O)O)NC(=O)[C@H](CC(=O)O)NC1=O)NC(=O)[C@H](C)NC(=O)[C@H](CC(=O)O)NC2=O (stereo partly drawn) [I-464, Ac-PL3-Asp-Ala-B5-Asp-Glu-Ala-Ala-Phe-Asn-PyrS3-Phe-BztA-Gln-NH2] | 
